Measurements as given in patent publication US20220119354A1, “DIAMINO-SUBSTITUTED PYRIDINES AND PYRIMIDINES AS HERBICIDES” (FMC Corporation, priority 2019, published 2022).

Assays:
Assay type in all cases: in vivo
[1] = system: ragweed (common ragweed, Ambrosia elatior); assay: Test A postemergence, ragweed; conditions: 0 to 100 scale; for Plant response rating, Ragweed: 0 no effect, 100 complete control
Excerpt: (§1) Seeds of plant species selected from barnyardgrass (Echinochloa crus-galli), kochia (Kochia scoparia), ragweed (common ragweed, Ambrosia elatior), ryegrass, Italian (Lolium multiflorum), foxtail, giant (Setaria faberii), foxtail, green (Setaria viridis), and pigweed (Amaranthus retroflexus) were planted into a blend of loam soil and sand and treated preemergence with a directed soil spray using test chemicals formulated in a non-phytotoxic solvent mixture which included a surfactant.
(§2) At the same time, plants selected from these weed species and also wheat (Triticum aestivum), corn (Zea mays), blackgrass (Alopecurus myosuroides), and galium (catchweed bedstraw, Galium aparine) were planted in pots containing the same blend of loam soil and sand and treated with postemergence applications of test chemicals formulated in the same manner. Plants ranged in height from 2 to 10 cm and were in the one- to two-leaf stage for the postemergence treatment. Treated plants and untreated controls were maintained in a greenhouse for approximately 10 d, after which time all treated plants were compared to untreated controls and visually evaluated for injury. Plant response ratings, summarized in Table A, are based on a 0 to 100 scale where 0 is no effect and 100 is complete control. A dash (-) response means no test result.

[2] = system: ragweed (common ragweed, Ambrosia elatior); assay: Test A preemergence, ragweed; conditions: 0 to 100 scale, 0 is no effect, 100 is complete control
Excerpt: as §1, §2

[3] = system: kochia (Kochia scoparia); assay: Test A preemergence, kochia; conditions: 0 to 100 scale, 0 is no effect, 100 is complete control
Excerpt: as §1, §2

[4] = system: ryegrass, Italian (Lolium multiflorum); assay: Test A postemergence, Italian ryegrass; conditions: 0 to 100 scale; for Plant response rating, Ryegrass, Italian: 0 no effect, 100 complete control
Excerpt: as §1, §2

[5] = system: barnyardgrass (Echinochloa crus-galli); assay: Test A preemergence, barnyardgrass; conditions: 0 to 100 scale, 0 is no effect, 100 is complete control
Excerpt: as §1, §2

[6] = system: galium (catchweed bedstraw, Galium aparine); assay: Test A postemergence, galium; conditions: 0 to 100 scale; for Plant response rating, Galium: 0 no effect, 100 complete control
Excerpt: as §1, §2

[7] = system: barnyardgrass (Echinochloa crus-galli); assay: Test A postemergence, barnyardgrass; conditions: 0 to 100 scale; for Plant response rating, Barnyardgrass: 0 no effect, 100 complete control
Excerpt: as §1, §2

[8] = system: blackgrass (Alopecurus myosuroides); assay: Test A postemergence, blackgrass; conditions: 0 to 100 scale; for Plant response rating, Blackgrass: 0 no effect, 100 complete control
Excerpt: as §1, §2

[9] = system: foxtail, giant (Setaria faberii); assay: Test A preemergence, giant foxtail; conditions: 0 to 100 scale, 0 is no effect, 100 is complete control
Excerpt: as §1, §2

[10] = system: ryegrass, Italian (Lolium multiflorum); assay: Test A preemergence, Italian ryegrass; conditions: 0 to 100 scale, 0 is no effect, 100 is complete control
Excerpt: as §1, §2

[11] = system: pigweed (Amaranthus retroflexus); assay: Test A postemergence, pigweed; conditions: 0 to 100 scale; for Plant response rating, Pigweed: 0 no effect, 100 complete control
Excerpt: as §1, §2

[12] = system: wheat (Triticum aestivum); assay: Test A postemergence, wheat; conditions: 0 to 100 scale; for Plant response rating, Wheat: 0 no effect, 100 complete control
Excerpt: as §1, §2

[13] = system: pigweed (Amaranthus retroflexus); assay: Test A preemergence, pigweed; conditions: 0 to 100 scale, 0 is no effect, 100 is complete control
Excerpt: as §1, §2

[14] = system: kochia (Kochia scoparia); assay: Test A postemergence, kochia; conditions: 0 to 100 scale; for Plant response rating, Kochia: 0 no effect, 100 complete control
Excerpt: as §1, §2

[15] = system: foxtail, giant (Setaria faberii); assay: Test A postemergence, giant foxtail; conditions: 0 to 100 scale; for Plant response rating, Foxtail, Giant: 0 no effect, 100 complete control
Excerpt: as §1, §2

[16] = system: corn (Zea mays); assay: Test A postemergence, corn; conditions: 0 to 100 scale; for Plant response rating, Corn: 0 no effect, 100 complete control
Excerpt: as §1, §2

[17] = 1000 g ai/ha, 0 is no effect, 100 is complete control

C[C@@H](Nc1nc(N)cc(C(F)(F)F)n1)c1cc2ccccc2s1 [Compound 97]
Ragweed plant response rating [1, 17]: 0 | Ragweed plant response rating ([2]; 1000 g ai/ha): 0 | Kochia plant response rating ([3]; 1000 g ai/ha): 0 | Ryegrass, Italian plant response rating [4, 17]: 0 | Barnyardgrass plant response rating ([5]; 1000 g ai/ha): 0 | Galium plant response rating [6, 17]: 20 | Barnyardgrass plant response rating [7, 17]: 0 | Blackgrass plant response rating [8, 17]: 0 | Foxtail, Giant plant response rating ([9]; 1000 g ai/ha): 0 | Ryegrass, Italian plant response rating ([10]; 1000 g ai/ha): 0 | Pigweed plant response rating [11, 17]: 0 | Wheat plant response rating [12, 17]: 0 | Pigweed plant response rating ([13]; 1000 g ai/ha): 0 | Kochia plant response rating [14, 17]: 20 | Foxtail, Giant plant response rating [15, 17]: 0 | Corn plant response rating [16, 17]: 0

Cc1cccc2oc(C(C)Nc3ncc(C(F)(F)F)c(N)n3)cc12 (centres unmarked) [Compound 101]
Plant response rating, Ragweed ([1]; 125 g ai/ha): 30 | Plant response rating, Ragweed ([1]; 500 g ai/ha): 100 | Ragweed plant response rating ([2]; 125 g ai/ha): 70 | Ragweed plant response rating ([2]; 500 g ai/ha): 100 | Kochia plant response rating ([3]; 125 g ai/ha): 90 | Kochia plant response rating ([3]; 500 g ai/ha): 90 | Plant response rating, Ryegrass, Italian ([4]; 125 g ai/ha): 60 | Plant response rating, Ryegrass, Italian ([4]; 500 g ai/ha): 70 | Barnyardgrass plant response rating ([5]; 125 g ai/ha): 90 | Barnyardgrass plant response rating ([5]; 500 g ai/ha): 90 | Plant response rating, Galium ([6]; 125 g ai/ha): 80 | Plant response rating, Galium ([6]; 500 g ai/ha): 90 | Plant response rating, Barnyardgrass ([7]; 125 g ai/ha): 30 | Plant response rating, Barnyardgrass ([7]; 500 g ai/ha): 100 | Plant response rating, Blackgrass ([8]; 125 g ai/ha): 20 | Plant response rating, Blackgrass ([8]; 500 g ai/ha): 70 | Foxtail, Giant plant response rating ([9]; 125 g ai/ha): 100 | Foxtail, Giant plant response rating ([9]; 500 g ai/ha): 100 | Ryegrass, Italian plant response rating ([10]; 125 g ai/ha): 30 | Ryegrass, Italian plant response rating ([10]; 500 g ai/ha): 90 | Plant response rating, Pigweed ([11]; 125 g ai/ha): 100 | Plant response rating, Pigweed ([11]; 500 g ai/ha): 100 | Plant response rating, Wheat ([12]; 125 g ai/ha): 0 | Plant response rating, Wheat ([12]; 500 g ai/ha): 40 | Pigweed plant response rating ([13]; 125 g ai/ha): 70 | Pigweed plant response rating ([13]; 500 g ai/ha): 100 | Plant response rating, Kochia ([14]; 125 g ai/ha): 70 | Plant response rating, Kochia ([14]; 500 g ai/ha): 100 | Plant response rating, Foxtail, Giant ([15]; 125 g ai/ha): 10 | Plant response rating, Foxtail, Giant ([15]; 500 g ai/ha): 100 | Plant response rating, Corn ([16]; 125 g ai/ha): 0 | Plant response rating, Corn ([16]; 500 g ai/ha): 40

CC(Nc1ncc(C(F)(F)F)c(N)n1)c1cc2c(Br)cccc2o1 (centres unmarked) [Compound 102]
Plant response rating, Ragweed ([1]; 125 g ai/ha): 30 | Plant response rating, Ragweed ([1]; 500 g ai/ha): 100 | Ragweed plant response rating ([2]; 125 g ai/ha): 50 | Ragweed plant response rating ([2]; 500 g ai/ha): 80 | Kochia plant response rating ([3]; 125 g ai/ha): 70 | Kochia plant response rating ([3]; 500 g ai/ha): 90 | Plant response rating, Ryegrass, Italian ([4]; 125 g ai/ha): 0 | Plant response rating, Ryegrass, Italian ([4]; 500 g ai/ha): 30 | Barnyardgrass plant response rating ([5]; 125 g ai/ha): 30 | Barnyardgrass plant response rating ([5]; 500 g ai/ha): 80 | Plant response rating, Galium ([6]; 125 g ai/ha): 100 | Plant response rating, Galium ([6]; 500 g ai/ha): 100 | Plant response rating, Barnyardgrass ([7]; 125 g ai/ha): 10 | Plant response rating, Barnyardgrass ([7]; 500 g ai/ha): 70 | Plant response rating, Blackgrass ([8]; 125 g ai/ha): 0 | Plant response rating, Blackgrass ([8]; 500 g ai/ha): 40 | Foxtail, Giant plant response rating ([9]; 125 g ai/ha): 80 | Foxtail, Giant plant response rating ([9]; 500 g ai/ha): 100 | Ryegrass, Italian plant response rating ([10]; 125 g ai/ha): 30 | Ryegrass, Italian plant response rating ([10]; 500 g ai/ha): 60 | Plant response rating, Pigweed ([11]; 125 g ai/ha): 100 | Plant response rating, Pigweed ([11]; 500 g ai/ha): 100 | Plant response rating, Wheat ([12]; 125 g ai/ha): 0 | Plant response rating, Wheat ([12]; 500 g ai/ha): 40 | Pigweed plant response rating ([13]; 125 g ai/ha): 100 | Pigweed plant response rating ([13]; 500 g ai/ha): 100 | Plant response rating, Kochia ([14]; 125 g ai/ha): 70 | Plant response rating, Kochia ([14]; 500 g ai/ha): 90 | Plant response rating, Foxtail, Giant ([15]; 125 g ai/ha): 0 | Plant response rating, Foxtail, Giant ([15]; 500 g ai/ha): 20 | Plant response rating, Corn ([16]; 125 g ai/ha): 0 | Plant response rating, Corn ([16]; 500 g ai/ha): 20
